The values below come from US20230234943A1, “TREX1 INHIBITORS AND USES THEREOF” (Tempest Therapeutics, Inc., priority 2020, published 2023).

Bounds are passed on as bounds.

This test deals with T1, Human TREX1 enzyme (amino acids 1-242) (Homo sapiens, UniProt Q9NSU2).
T1 construct: Human TREX1 enzyme (amino acids 1-242)
T1 sequence (Q9NSU2 1-242): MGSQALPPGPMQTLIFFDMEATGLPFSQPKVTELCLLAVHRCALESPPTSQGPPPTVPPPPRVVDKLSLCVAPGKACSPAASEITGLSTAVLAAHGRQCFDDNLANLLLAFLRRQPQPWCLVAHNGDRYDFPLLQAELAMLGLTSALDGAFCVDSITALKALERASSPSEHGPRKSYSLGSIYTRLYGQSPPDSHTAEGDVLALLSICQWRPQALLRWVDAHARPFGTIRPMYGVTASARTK
Put plainly: Human TREX1 enzymatic assay with dsDNA native oligonucleotide (Picogreen fluorescence). In kind it is biochemical. Conditions: 2 mM dithiothreitol in assay buffer; 50 nM dsDNA oligonucleotide; 30 min preincubation at 25° C.; read-out: TREX1/Human + DTT IC50 AVG. In outline:
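Remaining dsDNA quantified by Picogreen fluorescence after EDTA quench, with no-enzyme and DMSO wells as controls. Reactions used 50 nM annealed oligonucleotide for 5–15 min at 25 °C, after a 30 min compound–enzyme preincubation (0.8–0.16 nM TREX1; 2% DMSO; pH 7.7 Tris, 5 mM MgCl2).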
With `COc1cc(-c2nc3cc(N4CCN(S(=O)(=O)C(C)C)CC4)ccc3[nH]2)cc(O)c1O` [Example 116, 5-(5-(4-(isopropylsulfonyl)piperazin-1-yl)-1H-benzo[d]imidazol-2-yl)-3-methoxybenzene-1,2-diol], the IC50 is 1 to 10 µM. Regarding `COc1cc(-c2nc3cc(N4CC5(CN(C(C)=O)C5)C4)ccc3[nH]2)cc(O)c1O` [Example 132, 1-(6-(2-(3,4-dihydroxy-5-methoxyphenyl)-1H-benzo[d]imidazol-5-yl)-2,6-diazaspiro[3.3]heptan-2-yl)ethan-1-one], the IC50 is 10 to 100 µM. Regarding `COc1cc(-c2nc3ccccc3n2C2(C)COC2)c(C(F)(F)F)c(O)c1O` [Example 315, 6-methoxy-4-(1-(3-methyloxetan-3-yl)-1H-benzo[d]imidazol-2-yl)-3-(trifluoromethyl)benzene-1,2-diol], the IC50 was 10 to 100 µM. Then `COc1c(O)c(O)cc(-c2nc3cc(N4CCC4)ccc3n2C2COC2)c1F` [Example 298, 5-(5-(azetidin-1-yl)-1-(oxetan-3-yl)-1H-benzo[d]imidazol-2-yl)-4-fluoro-3-methoxybenzene-1,2-diol], with 1 to 10 µM; and `COc1cc(-c2nc3cc(N4CCC4=O)ccc3n2C2(C)COC2)c(F)c(O)c1O` [Example 272, 1-(2-(2-fluoro-3,4-dihydroxy-5-methoxyphenyl)-1-(3-methyloxetan-3-yl)-1H-benzo[d]imidazol-5-yl)azetidin-2-one], with 0.1 to 1 µM. Turning to `COc1cc(-c2nc3nc(N4CCOCC4)ncc3[nH]2)cc(O)c1O` [Example 80, 3-methoxy-5-(2-morpholino-7H-purin-8-yl)benzene-1,2-diol], the IC50 was more than 100 µM. With `COc1cc(-c2nc3c(-c4ccccc4)ncnc3[nH]2)cc(O)c1O` [Example 37, 3-methoxy-5-(6-phenyl-9H-purin-8-yl)benzene-1,2-diol], the IC50 is more than 100 µM. In the case of `CCNc1ccc2c(c1)nc(-c1cc(OC)c(O)c(O)c1F)n2C1(C)COC1` [Example 223, 4-(5-(ethylamino)-1-(3-methyloxetan-3-yl)-1H-benzo[d]imidazol-2-yl)-3-fluoro-6-methoxybenzene-1,2-diol] it was 0.1 to 1 µM; in that of `COc1cc(-c2nc3cc(N4CCN(C(=O)c5cccnc5)CC4)ccc3[nH]2)cc(O)c1O` [Example 32, (4-(2-(3,4-dihydroxy-5-methoxyphenyl)-1H-benzo[d]imidazol-5-yl)piperazin-1-yl)(pyridin-3-yl)methanone], 10 to 100 µM. Then `COc1cc(-c2nc3cc(N(C)C(C)=O)ccc3n2C2(C)COC2)c(F)c(O)c1O` [Example 195], with 0.1 to 1 µM; and `COc1cc(-c2nc3cc(N4CCN(C(=O)c5ccc(C)cc5)CC4)ccc3[nH]2)cc(O)c1O` [Example 98, (4-(2-(3,4-dihydroxy-5-methoxyphenyl)-1H-benzo[d]imidazol-5-yl)piperazin-1-yl)(p-tolyl)methanone], with 1 to 10 µM; and `COc1cc(-c2nc3cc(N4CC(O)C4)ccc3n2C2COC2)c(F)c(O)c1O` [Example 294, 3-fluoro-4-(5-(3-hydroxyazetidin-1-yl)-1-(oxetan-3-yl)-1H-benzo[d]imidazol-2-yl)-6-methoxybenzene-1,2-diol], with 1 to 10 µM. Then `COc1cc(-c2nc3cc(N4CC5(CN(CC(F)(F)F)C5)C4)ccc3[nH]2)cc(O)c1O` [Example 122, 3-methoxy-5-(5-(6-(2,2,2-trifluoroethyl)-2,6-diazaspiro[3.3]heptan-2-yl)-1H-benzo[d]imidazol-2-yl)benzene-1,2-diol], with 10 to 100 µM; and `COc1cc(-c2nc3ccccc3n2C(C)C)c(C)c(O)c1O` [Example 226, 4-(1-isopropyl-1H-benzo[d]imidazol-2-yl)-6-methoxy-3-methylbenzene-1,2-diol], with 1 to 10 µM; and `CNS(=O)(=O)c1ccc2[nH]c(-c3cc(O)c(O)c(OC)c3)nc2c1` [Example 20, 2-(3,4-dihydroxy-5-methoxyphenyl)-N-methyl-1H-benzo[d]imidazole-5-sulfonamide], with more than 100 µM.

With `COc1cc(-c2nc3cc(N4CCNC(C)(C)C4)ccc3[nH]2)cc(O)c1O` [Example 91, 5-(5-(3,3-dimethylpiperazin-1-yl)-1H-benzo[d]imidazol-2-yl)-3-methoxybenzene-1,2-diol], the IC50 was in the range of 10 to 100 µM.

Turning to `COc1cc(-c2nc3ccc(C(=O)NC4CCNCC4)cc3n2C2(C)COC2)c(F)c(O)c1O` [Example 255, 2-(2-fluoro-3,4-dihydroxy-5-methoxyphenyl)-1-(3-methyloxetan-3-yl)-N-(piperidin-4-yl)-1H-benzo[d]imidazole-6-carboxamide], the IC50 is 0.1 to 1 µM. Regarding `COc1cc(-c2nc3cnccc3n2C2(C)COC2)c(F)c(O)c1O` [Example 229, 3-fluoro-6-methoxy-4-(1-(3-methyloxetan-3-yl)-1H-imidazo[4,5-c]pyridin-2-yl)benzene-1,2-diol], the IC50 lay within 1 to 10 µM. Then `COc1cc(-c2nc3cc(C4CCCCC4)ccc3[nH]2)cc(O)c1O` [Example 75, 5-(5-cyclohexyl-1H-benzo[d]imidazol-2-yl)-3-methoxybenzene-1,2-diol], with more than 100 µM; and `COc1cc(-c2nc3cc(N(C)C)ccc3[nH]2)cc(O)c1O` [Example 92, 5-(5-(dimethylamino)-1H-benzo[d]imidazol-2-yl)-3-methoxybenzene-1,2-diol], with more than 100 µM; and `CC(C)COc1cc(-c2nc3cccnc3n2CC(C)C)cc(O)c1O` [Example 40, 3-isobutoxy-5-(3-isobutyl-3H-imidazo[4,5-b]pyridin-2-yl)benzene-1,2-diol], with more than 100 µM. As to `COc1cc(-c2nc3cc(N4CCN(C(C)=O)CC4)ccc3n2C(C)=O)cc(O)c1O` [Example 27, 1-(4-(1-acetyl-2-(3,4-dihydroxy-5-methoxyphenyl)-1H-benzo[d]imidazol-5-yl)piperazin-1-yl)ethanone], the IC50 was in the range of 10 to 100 µM. In the case of `O=C(O)c1ccc(-c2nc3ccccc3n2C2COC2)c(F)c1O` [Example 141, 3-fluoro-2-hydroxy-4-(1-(oxetan-3-yl)-1H-benzo[d]imidazol-2-yl)benzoic acid] it was more than 100 µM; in that of `COc1cc(-c2nc3ccccc3n2C2(C)COC2)c(C#N)c(O)c1O` [Example 216, 2,3-dihydroxy-4-methoxy-6-[1-(3-methyloxetan-3-yl)-1H-1,3-benzodiazol-2-yl]benzonitrile], 10 to 100 µM. In the case of `COc1c(C)c(-c2nc3cc(N4CCC4)ccc3n2C2COC2)c(F)c(O)c1O` [Example 199, 4-[5-(azetidin-1-yl)-1-(oxetan-3-yl)-1H-1,3-benzodiazol-2-yl]-3-fluoro-6-methoxy-5-methylbenzene-1,2-diol] it was 1 to 10 µM; in that of `COc1cc(-c2nc3ccccc3n2C)cc(O)c1O` [Example 10, 3-methoxy-5-(1-methyl-1H-benzo[d]imidazol-2-yl)benzene-1,2-diol], more than 100 µM; in that of `Cc1c(-c2nc3ccccc3n2C2CCC2)cc(OC(C)C)c(O)c1O` [Example 290, 4-(1-cyclobutyl-1H-1,3-benzodiazol-2-yl)-3-methyl-6-(propan-2-yloxy)benzene-1,2-diol], 10 to 100 µM. Then `COc1cc(-c2nc3cc(N4CCN(CCF)CC4)ccc3[nH]2)cc(O)c1O` [Example 66, 5-(5-(4-(2-fluoroethyl)piperazin-1-yl)-1H-benzo[d]imidazol-2-yl)-3-methoxybenzene-1,2-diol], with 10 to 100 µM.
